Values of other authors in patent US7863277B1, “Topical antipsychotic composition” (Medcara, L.L.C., priority 2005, dated 2011).

Conditions: decreasing absorption when not taken concurrently with food

Oral bioavailability: about 60%
SMILES: O=C1Cc2cc(CCN3CCN(c4nsc5ccccc45)CC3)c(Cl)cc2N1 [ziprasidone, 5-(2-(4-(1,2-benzisothiazol-3-yl)piperazinyl)ethyl)-6-chloro-1,3-dihydro-2(1H)-indole-2-one]
